Reference: US7271239B2, “D-isomers of antimicrobial peptide” (The Research Foundation of State University of New York, priority 2004, dated 2007)
Read-outs that look alike come from different tables or passages of the source. Where no end group is shown, it is not given here.

How the values were obtained:
[1] = system: C. glabrata 65C (azole-resistant clinical isolate); assay type: cell-based; settings: clarified saliva
Source text: (§1) Killing assays in saliva. […] Saliva without peptides was a blank control.
(§2) Activity of peptides in saliva against different candida strains. The in vitro candidacidal activities of MUC7 12-mer-L and D, Hsn5 12-mer, and Magainin-II against four Candida strains in clarified saliva are shown in Table 1. The data are presented as percent loss of cell viability compared to non-treated control. The following observations were made. […] In the presence of PIC, the activity values of MUC7 12-mer-L and of Magainin-II rose close to a 100% for all strains, but not that of Hsn5 peptide, which achieved the similar activity only against the C. albicans (ATCC strain). The activities against the other strains were much lower, in particular against both strains of C. glabrata (30-40%). […] This was true especially in saliva without PIC.

C. albicans ATCC96112 = experiment: Killing assay in clarified saliva; assay type: cell-based
Source text: as §1, §2

C. krusei = experiment: Killing assay in clarified saliva; assay type: cell-based
Source text: as §1, §2

C. glabrata ATCC90030 = experiment: Killing assay in clarified saliva; assay type: cell-based
Source text: as §1, §2

Erythrocytes = settings: determined previously (5), cited from earlier work
HOK-16B cells = experiment: MTS cell viability assay; assay type: cell-based, human; settings: 200 μM
Protocol: FIG. 6. Effect of peptides on viability of (A) HOK-16B cells and (B) KB cells. The toxic effect of the compounds on the cells was determined by calorimetric assay using a CellTiter 96 AQueous One Solution cell proliferation assay (MTS) kit, as described in the text. Briefly, the cells were grown to about 80% confluence, harvested, washed, resuspended in KGM, and dispensed into a 96-well microtiter plate. They were then exposed to different concentrations of peptides or amphotericin B at 37° C. and 5% CO2 for 1.5 h. MTS agent was then added to each well, and the cells were further incubated for 4 h. Absorbance at 490 nm was then measured using a microplate reader. MTS reduction is an indication of cell viability. The viability is expressed as relative absorbance (percentage of no-agent control). Data represent the average and standard deviation of results from two independent experiments.
Cell culture. The HOK-16B cell line (originated from primary normal human keratinocytes) was kindly provided by No-Hee Park, UCLA School of Dentistry. The KB cell line was obtained from the American Type Culture Collection (CLL-17). […]
MTS cell viability assay. The toxic effect of the compounds on the cells was determined by calorimetric assay using a CellTiter 96 AQueous One Solution cell proliferation assay (MTS) kit (Promega, Wis.). […] Absorbance at 490 nm was then measured using a microplate reader. […]

C. albicans DIS = experiment: Killing assay in whole human saliva
Protocol: FIG. 1. Candidacidal activity of MUC7 12-mer-L, MUC7 12-mer-D, Hsn5 12-mer, and Magainin-II in whole human saliva (WHS). Each peptide at final concentration of 25, 50, and 100 μM was incubated with C. albicans (DIS isolate at 1×10^5 cells/ml) and 20 μl of clarified or unclarified saliva (SL; hatched bars), saliva containing Protease inhibitor cocktail (PIC) (SL+PIC; filled bars), or saliva containing ethylenediamine tetraacetic acid (EDTA) (SL+EDTA; clear bars) at 37° C. for 1.5 h. At the end of incubation, the samples were diluted 20-fold and aliquots plated on SDA. The colony forming units (CFU) were counted after 24 h of incubation. The loss of C. albicans viability was determined by the equation (1−CFU of the test group/CFU of the control group)×100%. The data represent three individual trials, and in each trial the sample was duplicated; the error bars represent standard deviation.
FIG. 4. […] Stimulated whole saliva was collected from 5 healthy subjects. Peptides (50 μM) were incubated with C. albicans cells (1×10^5) in the each individual saliva containing PIC (SL+PIC) at 37° C. for 1.5 hr and the loss of the cell viability was determined. Values represent the mean±S.D. (n=5).
Killing assays in saliva. Unclarified saliva (unstimulated whole saliva) was collected from five healthy individuals during the fasting. Clarified saliva was obtained by passing the unclarified saliva through the 0.2 μm pore size sterile syringe filter (VWR scientific products, West Chester, Pa.). Candidacidal activity assays were performed as described previously (4), except the phosphate buffer was substituted with saliva. […] Saliva without peptides was a blank control. After incubation at 37° C. for 1.5 h, the reactions were diluted 20-fold in PB and aliquots (50 μl, ˜120 cells) of each sample were plated on SDA. The plates were incubated at 37° C. for 1 day aerobically and the number of colony-forming units (CFUs) was counted. Percentage of killing was calculated as (1−amount of viable cells in the test group)/(amount of viable cells in the control group)×100%.

For GIGKFLHSAKKFGKAFVGEIMNS [Magainin-II], the “percent loss of cell viability” value ([1]; PIC+) was 99.80^± %, the “percent loss of cell viability” value ([1]; PIC−) was 0.00% and the “percent loss of cell viability” value (C. albicans ATCC96112; PIC+) was 97.90%. The “percent loss of cell viability” value (C. albicans ATCC96112; PIC−) was 7.17%, the “percent loss of cell viability” value (C. krusei; PIC+) was 100% and the “percent loss of cell viability” value (C. krusei; PIC−) was 0.00%. For the same sequence, the “percent loss of cell viability” value (C. glabrata ATCC90030; PIC+) was 99.06^± %, the “percent loss of cell viability” value (C. glabrata ATCC90030; PIC−) was 0.00% and the hemolysis (Erythrocytes; IGP buffer) was 92%. The hemolysis (Erythrocytes; PBS) was 0%, the “loss of HOK-16B cell viability” value (HOK-16B cells) was “about 30%” and the “candidacidal activity (killing)” value (C. albicans DIS; 100 μM, clarified saliva, no PIC/EDTA) was 0%. For the same sequence, the killing (C. albicans DIS; 100 μM, unclarified saliva, no PIC/EDTA) was 0%, the “percent loss of cell viability” value (C. albicans DIS; clarified saliva, PIC+ (Table 1)) was 94.42^± % and the “percent loss of cell viability” value (C. albicans DIS; clarified saliva, PIC− (Table 1)) was 0.00%.
